In this test the test system is MIA PaCa-2. The procedure:
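MIA PaCa-2 Tet-on shOFD1 pancreatic cancer cells (2000 cells/well, 96-well) were treated with Selleck FDA-approved library compounds at 0, 1, 5, 10, 25 and 50 µM, with extra concentrations added where needed, for 72 h at 37 °C. Knockdown wells also received 100 ng/mL doxycycline; control wells received DMSO without doxycycline. Viability was read by CCK-8 absorbance at 450 nm and normalised to DMSO control wells. IC50 was fitted in GraphPad Prism as a 4-parameter logistic with bottom fixed at 0 and top fixed at 1; at least 3 technical replicate wells per condition.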

Where [1] appears, read: OFD1 knockdown: no (no doxycycline).
The mark [2] stands for this setting: OFD1 knockdown: yes (Tet-on shOFD1, 100 ng/mL doxycycline).

Data on 48 molecules can be found in the supplement of paper PMC12325586.

In the case of `CC(=O)c1c(C)c2cnc(Nc3ccc(N4CCNCC4)cn3)nc2n(C2CCCC2)c1=O` [S1116], the IC50 cell viability worked out at 43.1 µM under setting [1] and 46.4 µM under setting [2].
In the same order, the values of `CO[C@H]1C[C@@H]2CC[C@@H](C)[C@@](O)(O2)C(=O)C(=O)N2CCCC[C@H]2C(=O)O[C@H]([C@H](C)C[C@@H]2CC[C@@H](OCCO)[C@H](OC)C2)CC(=O)[C@H](C)/C=C(\C)[C@@H](O)[C@@H](OC)C(=O)[C@H](C)C[C@H](C)/C=C/C=C/C=C/1C` [S1120] are 2.19 µM and 2.81 µM.
Turning to `Nc1ccccc1NC(=O)c1ccc(CNc2nccc(-c3cccnc3)n2)cc1` [S1122], the IC50 cell viability by setting is: under setting [1], 1.29 µM; under setting [2], 1.07 µM.
In the same order, the values of `COCC[n+]1c2c(n(Cc3cnccn3)c1C)C(=O)c1ccccc1C2=O` [S1130] are 0.82 µM and 0.92 µM.
Regarding `COc1cc(Nc2ncc3c(n2)-c2ccc(Cl)cc2C(c2c(F)cccc2OC)=NC3)ccc1C(=O)O` [S1133], the IC50 cell viability by setting is: under setting [1], 8.24 µM; under setting [2], 10.5 µM.
In the same order, the values of `CC(C)OC(=O)C(C(=O)OC(C)C)=C1SC=CS1` [S1137] are 38.1 µM and 36.1 µM.
In the same order, the values of `C=CCNC1=C2C[C@@H](C)C[C@H](OC)[C@H](O)[C@@H](C)/C=C(\C)[C@H](OC(N)=O)[C@@H](OC)/C=C\C=C(/C)C(=O)NC(=CC1=O)C2=O` [S1141] are 1.07 µM and 0.75 µM.
Taken in the same sequence, the figures for `CCN(CCO)CCCOc1ccc2c(Nc3cc(CC(=O)Nc4cccc(F)c4)[nH]n3)ncnc2c1` [S1147] were 16.7 µM and 15.1 µM.
In the case of `CC(=O)O[C@@]12CO[C@@H]1C[C@H](O)[C@@]1(C)C(=O)[C@H](O)C3=C(C)[C@@H](OC(=O)[C@H](O)[C@@H](NC(=O)OC(C)(C)C)c4ccccc4)C[C@@](O)([C@@H](OC(=O)c4ccccc4)[C@H]21)C3(C)C` [S1148], the IC50 cell viability by setting is: under setting [1], 0.39 µM; under setting [2], 0.34 µM.
Taken in the same sequence, the figures for `CC(=O)O[C@H]1C(=O)[C@@]2(C)[C@H]([C@H](OC(=O)c3ccccc3)[C@]3(O)C[C@H](OC(=O)[C@H](O)[C@@H](NC(=O)c4ccccc4)c4ccccc4)C(C)=C1C3(C)C)[C@]1(OC(C)=O)CO[C@@H]1C[C@@H]2O` [S1150] were 19 µM and 17.6 µM.
Taken in the same sequence, the figures for `CCCCCOC(=O)Nc1nc(=O)n([C@@H]2O[C@H](C)[C@@H](O)[C@H]2O)cc1F` [S1156] were 34 µM and 34.3 µM.
Taken in the same sequence, the figures for `CC(C)c1cc(-c2n[nH]c(=O)n2-c2ccc3c(ccn3C)c2)c(O)cc1O` [S1159] were 2.42 µM and 2.01 µM.
As to `COc1cc2nccc(Oc3ccc(NC(=O)NC4CC4)c(Cl)c3)c2cc1C(N)=O` [S1164], the IC50 cell viability was 21.1 µM under setting [1] and 19.7 µM under setting [2].
In the same order, the values of `CNC(=O)c1cc(Oc2ccc(NC(=O)Nc3ccc(Cl)c(C(F)(F)F)c3)c(F)c2)ccn1` [S1178] are 1.56 µM and 1.28 µM.
In the same order, the values of `CC(C)(C#N)c1cc(Cn2cncn2)cc(C(C)(C)C#N)c1` [S1188] are 47.1 µM and 59.2 µM.
As for `C[C@@H](O[C@H]1OCCN(Cc2n[nH]c(=O)[nH]2)[C@H]1c1ccc(F)cc1)c1cc(C(F)(F)F)cc(C(F)(F)F)c1` [S1189], the IC50 cell viability came out at 13.9 µM under setting [1] and 14.2 µM under setting [2].
In the same order, the values of `CC(O)(CS(=O)(=O)c1ccc(F)cc1)C(=O)Nc1ccc(C#N)c(C(F)(F)F)c1` (stereo unspecified) [S1190] are 53.5 µM and 45.6 µM.
Consider `C[C@]12CC[C@@H]3c4ccc(O)cc4C[C@@H](CCCCCCCCC[S+]([O-])CCCC(F)(F)C(F)(F)F)[C@H]3[C@@H]1CC[C@@H]2O` (stereo partly specified) [S1191], for which the IC50 cell viability came out at 25.6 µM under setting [1] and 24.5 µM under setting [2].
Taken in the same sequence, the figures for `Cc1nc(=O)c2cc(CN(C)c3ccc(C(=O)N[C@@H](CCC(=O)O)C(=O)O)s3)ccc2[nH]1` [S1192] were 15.8 µM and 14.1 µM.
As for `O=C1CCC(N2C(=O)c3ccccc3C2=O)C(=O)N1` (stereo unspecified) [S1193], the IC50 cell viability is, setting by setting: under setting [1], 29.9 µM; under setting [2], 28.2 µM.
In the same order, the values of `C#Cc1cccc(Nc2ncnc3cc(OC)c(OCCCCCCC(=O)NO)cc23)c1` [S1194] are 1.35 µM and 1.14 µM.
Taken in the same sequence, the figures for `C=C1C[C@@H]2[C@H](CC[C@]3(C)C(=O)CC[C@@H]23)[C@@]2(C)C=CC(=O)C=C12` [S1196] were 53.5 µM and 50.2 µM.
In the same order, the values of `CCc1c2c(nc3ccc(OC(=O)N4CCC(N5CCCCC5)CC4)cc13)-c1cc3c(c(=O)n1C2)COC(=O)[C@]3(O)CC` [S1198] are 24.5 µM and 20 µM.
The molecule `Nc1nc(Cl)nc2c1ncn2[C@H]1C[C@H](O)[C@@H](CO)O1` [S1199] displayed an IC50 cell viability under setting [1] of 55.1 µM and an IC50 cell viability under setting [2] of 49.9 µM.
`Nc1ncn([C@H]2C[C@H](O)[C@@H](CO)O2)c(=O)n1` [S1200] yielded an IC50 cell viability under setting [1] of 74.8 µM and an IC50 cell viability under setting [2] of 77.2 µM.
Taken in the same sequence, the figures for `O=S(=O)(O)CCSSCCS(=O)(=O)O` [S1201] were 82.1 µM and 70.3 µM.
Regarding `C[C@]12C=CC(=O)N[C@@H]1CC[C@@H]1[C@@H]2CC[C@]2(C)[C@@H](C(=O)Nc3cc(C(F)(F)F)ccc3C(F)(F)F)CC[C@@H]12` [S1202], the IC50 cell viability amounted to 2.38 µM under setting [1] and 2.28 µM under setting [2].
With `COc1cc2nccc(Oc3ccc(NC(=O)Nc4cc(C)on4)c(Cl)c3)c2cc1OC` [S1207], the IC50 cell viability was determined as 10 µM under setting [1] and 7.5 µM under setting [2].
Taken in the same sequence, the figures for `COc1cccc2c1C(=O)c1c(O)c3c(c(O)c1C2=O)CC(O)(C(=O)CO)CC3OC1CC(N)C(O)C(C)O1` (stereo unspecified) [S1208] were 1.85 µM and 1.52 µM.
With `O=c1[nH]cc(F)c(=O)[nH]1` [S1209], the IC50 cell viability by setting is: under setting [1], 3.34 µM; under setting [2], 2.54 µM.
In the same order, the values of `CN(Cc1cnc2nc(N)nc(N)c2n1)c1ccc(C(=O)N[C@@H](CCC(=O)O)C(=O)O)cc1` [S1210] are 0.47 µM and 0.39 µM.
Taken in the same sequence, the figures for `Cn1c(CCCC(=O)O)nc2cc(N(CCCl)CCCl)ccc21` [S1212] were 15.8 µM and 17 µM.
In the same order, the values of `COc1nc(N)nc2c1ncn2[C@@H]1O[C@H](CO)[C@@H](O)[C@@H]1O` [S1213] are 1.66 µM and 1.5 µM.
Consider `Cc1c(N)nc(C(CC(N)=O)NCC(N)C(N)=O)nc1C(=O)NC(C(=O)NC(C)C(O)C(C)C(=O)NC(C(=O)NCCc1nc(-c2nc(C(=O)NCCC[S+](C)C)cs2)cs1)C(C)O)C(O[C@@H]1O[C@@H](CO)[C@@H](O)[C@H](O)[C@@H]1O[C@H]1O[C@H](CO)[C@@H](O)[C@H](OC(N)=O)[C@@H]1O)c1cnc[nH]1` (stereo partly specified) [S1214], for which the IC50 cell viability by setting is: under setting [1], 1.84 µM; under setting [2], 1.69 µM.
For the molecule `Nc1nc(Cl)nc2c1ncn2[C@@H]1O[C@H](CO)[C@@H](O)[C@@H]1F` [S1218], the IC50 cell viability by setting is: under setting [1], 0.55 µM; under setting [2], 0.53 µM.
In the same order, the values of `CN(C)/N=N/c1[nH]cnc1C(N)=O` [S1221] are 52.8 µM and 51.9 µM.
In the case of `COc1cccc2c1C(=O)c1c(O)c3c(c(O)c1C2=O)C[C@@](O)(C(=O)CO)C[C@@H]3O[C@H]1C[C@H](N)[C@@H](O)[C@H](C)O1` [S1223], the IC50 cell viability was determined as 0.63 µM under setting [1] and 0.58 µM under setting [2].
Taken in the same sequence, the figures for `O=C(O)C(=O)O.[NH-][C@@H]1CCCC[C@H]1[NH-].[Pt+2]` [S1224] were 60.3 µM and 57.3 µM.
Taken in the same sequence, the figures for `COc1cc([C@@H]2c3cc4c(cc3[C@@H](O[C@@H]3O[C@@H]5CO[C@@H](C)O[C@H]5[C@H](O)[C@H]3O)[C@H]3COC(=O)[C@H]23)OCO4)cc(OC)c1O` [S1225] were 2.31 µM and 2.03 µM.
In the same order, the values of `O=C(c1ccc(OCCN2CCCCC2)cc1)c1c(-c2ccc(O)cc2)sc2cc(O)ccc12` [S1227] are 8.3 µM and 8.74 µM.
Take `Nc1nc(F)nc2c1ncn2[C@@H]1O[C@H](COP(=O)(O)O)[C@@H](O)[C@@H]1O` [S1229]: the IC50 cell viability by setting is: under setting [1], 2.26 µM; under setting [2], 1.95 µM.
As to `CC[C@@]1(O)C(=O)OCc2c1cc1n(c2=O)Cc2cc3c(CN(C)C)c(O)ccc3nc2-1` [S1231], the IC50 cell viability is 54.5 µM under setting [1] and 49.8 µM under setting [2].
Taken in the same sequence, the figures for `N#Cc1ccc(C(c2ccc(C#N)cc2)n2cncn2)cc1` [S1235] were 12.5 µM and 12.4 µM.
Taken in the same sequence, the figures for `Cn1nnc2c(C(N)=O)ncn2c1=O` [S1237] were 12 µM and 11.3 µM.
In the same order, the values of `CC[C@]1(O)C[C@H]2CN(CCc3c([nH]c4ccccc34)[C@@](C(=O)OC)(c3cc4c(cc3OC)N(C=O)[C@H]3[C@@](O)(C(=O)OC)[C@H](OC(C)=O)[C@]5(CC)C=CCN6CC[C@]43[C@@H]65)C2)C1` [S1241] are 20.9 µM and 21.3 µM.
For `S=C(NCc1ccc2c(c1)OCO2)N1CCN(c2ncnc3c2oc2ccccc23)CC1` [S1244], the IC50 cell viability worked out at 51.5 µM under setting [1] and 51.9 µM under setting [2].
As for `CNC(=O)c1ccc(N2C(=S)N(c3ccc(C#N)c(C(F)(F)F)c3)C(=O)C2(C)C)cc1F` [S1250], the IC50 cell viability is, setting by setting: under setting [1], 29.5 µM; under setting [2], 27.8 µM.
For `Cc1ccc(-c2cc(C(F)(F)F)nn2-c2ccc(S(N)(=O)=O)cc2)cc1` [S1261], the IC50 cell viability by setting is: under setting [1], 25.2 µM; under setting [2], 24.3 µM.
